In patent US20160206592A1, “METHOD FOR TREATING AMYOTROPHIC LATERAL SCLEROSIS BY INHIBITION OF CXCR4/CXCL12 SIGNALING” (RAMOT AT TEL-AVIV UNIVERSITY LTD., priority 2013, published 2016):
Like-named read-outs stand apart in the source and are kept apart here.

Legend:
[1] = system: ZO-1, claudin 5, Occludin; conditions: female SODG93A mice, 5 mg/kg s.c. twice a week from 50 days old, sacrificed at 110 days old
Method: FIGS. 9A-9C show Blood-CNS-Barrier markers levels following AMD3100 treatment. 50 days old female SODG93A mice were s.c injected with 5 mg/kg AMD3100 twice a week. On 110 days old mice were sacrificed and analyzed for B-CNS-B markers using western blot.
Endothelial cells play an important role in B-CNS-B function. B-CNS-B dysfunction is recognized to participate in neurodegenerative disorders. […] TJPs such as ZO-1, occludin and the claudin family exist in cerebral vascular endothelial cells, which are the most crucial factors modulating barrier integrity. […] The expression of TJPs has been reported to contribute to barrier function. ZO-1 and claudin-5 are the most important components for cell barrier integrity. Claudin-5 can greatly reduce dextran permeability and improve transendothelial electrical resistance and plays an essential role in the earliest stage of CNS angiogenesis. ZO-1 serves as a bridge between transmembrane proteins and skeleton proteins, and this interaction is important to the stability and function of endothelial barrier. […] All these three proteins are known to be reduced by 40%-60% in both animal models of ALS and humans, even prior to disease onset (Zhong et al., 2008).

[2] = system: NSC-34 cells stably transfected with mutant SOD1; conditions: 25 ug AMD3100, astrocytes from newborn SODG93A mice incubated 24 h, compared to other concentrations
Method: Primary astrocytes from 3 days old newborn SODG93A mice were incubated AMD3100 for 24 h. Media of treated astrocytes was then added to NSC-34 cells stably transfected with mutant SOD1.

[3] = system: transgenic G93A mice; conditions: G93A female mice, s.c. once and twice a week
From the text: Six mice received AMD3100 once a week, eight mice received AMD3100 twice a week, and seven mice received PBS once a week.
For this purpose, the present inventors treated G93A female mice subcutaneously with either AMD3100 or PBS, starting at 70 days old. Six mice received AMD3100 once a week, eight mice received AMD3100 twice a week, and seven mice received PBS once a week.

[4] = system: SOD1-G93A female and male mice
Method: FIGS. 4A-4C are graphs showing survival (Kaplan-Meier curves; P-value=0.0001) of SOD1-G93A female and male mice subcutaneously treated with either 5 mg/kg AMD3100 or PBS, starting at 50 days old; N=29 (AMD3100), N=16 (PBS).

[5] = system: activated microglia; conditions: female SODG93A mice, 5 mg/kg s.c. twice a week from 50 days old, sacrificed at 110 days old
Method: 50 days old female SODG93A mice were s.c injected with 5 mg/kg AMD3100 twice a week. On 110 days old mice were sacrificed and analyzed using western blot for inflammatory markers of activated microglia. FIG. 7A. is cd36 levels. FIG. 7B. is Iba-1 levels.
Loss of upper and lower MNs results in progressive muscle paralysis and ultimately death due to respiratory failure. Although initially thought to derive from the selective loss of MNs, the pathogenic concept of non-cell autonomous disease has come to the fore front for the contribution of glial cells in ALS, in particular microglia. […] Conversely, activated microglia contributes and enhances MN death by secreting neurotoxic factors, and impaired microglial function at the end-stage may instead accelerate disease progression. However, the nature of microglial-neuronal interactions that lead to MN degeneration remains elusive.

[6] = females only, 5 mg/kg twice a week
[7] = males and females together, 5 mg/kg s.c., starting at 50 days old
[8] = males only, 5 mg/kg twice a week

## c1cc(CN2CCCNCCNCCCNCC2)ccc1CN1CCCNCCNCCCNCC1 [AMD3100, 1,1′-[1,4-Phenylenebis(methylene)]bis-1,4,8,11-tetraazacyclotetradecane]
[1]
  Occludin levels: effective in restoring the expression
  ZO-1 levels: effective in restoring the expression
  claudin 5 levels: effective in restoring the expression
[2]
  survival of motor neuron like cells: increased the survival
[3]
  extension of survival compared with control (PBS) mice: about 14 days
[3]; starting at 70 days old
  age at death: ~170 days old
[4]; [6]
  mean survival: 146 days
  median survival: 144 days
  survival (versus PBS): 14 days
[4]; [7]
  mean survival: 144 days
  median survival: 143 days
  survival according to Kaplan-Meier curve (versus PBS): 12 days
[4]; [8]
  mean survival: 141 days
  median survival: 139 days
  survival (versus PBS): 8 days
[5]
  Iba-1 levels: significant reduction
  cd36 levels: significant reduction
